Tests used:
[1] = tested on: Saccharomyces cerevisiae wild type strain BY4743; test: AF1 gene expression analysis of yeast cells treated with antifungal drugs; format: cell-based; settings: for # Transcripts perturbed: 2x MIC, two hours; for # Pathways Affected by at Least One Gene: p < 0.05
Protocol: Saccharomyces cerevisiae wild type strain BY4743 was purchased from American Type Culture Center (ATCC, Manassas, Va.). The yeast strain was grown in YPD or SD media. H. […] The cultures started from fresh single colonies were grown in 1.0 ml YPD overnight at 30° C. […] The OD600 was adjusted to 1.0 with YPD media, then 2.0 ml of each was inoculated into three 250 ml flasks, each containing 50 ml of SD media. […] The cells were kept growing for another two hours, then collected by centrifugation at 4000 rpm for 5 minutes at 4° C. Pellets were washed once with ice-cold water, then were lyophilized overnight at 4° C. […] Tubes were vortexed for 30 seconds, then incubated for 10 minutes at room temperature (RT). […] Tubes were incubated for 10 minutes at RT. Samples were centrifuged for 20 minutes as before. Pellets were washed with 400 μl 70% ethanol and centrifuged for 10 minutes as before. The pellet was then dissolved in 100 μl nuclease-free water. RNA quality was determined using the Bioanalyzer 2100 and the RNA 6000 assay (Agilent Technologies, Palo Alto, Calif.) according to manufacturer's instructions. RNA concentrations were determined spectrophotometrically by measuring the absorption at, 260 nm in an Ultrospec 2000 (Pharmacia Biotech, Piscataway, N.J.). […] Labeled cRNAs were evaluated using the RNA 6000 assay on the Agilent Bioanalyzer 2100. Labeled cRNA concentrations were determined spectrophotometrically by measuring the absorption at 260 nm in an Ultrospec 2000 (Pharmacia Biotech, Piscataway, N.J.). […] Each pair of samples to be hybridized were independently labeled and hybridized utilizing a fluor reversal for a total of two hybridizations per sample pair. The microarrays were scanned simultaneously in the Cy3 and Cy5 channels with Agilent's 48-slide, Dual Laser DNA Microarray Scanner (Agilent Technologies, Palo Alto, Calif.) at 10 μm resolution using default settings. Image Analysis Software (Version A.4.0.45, Agilent Technologies, Palo Alto, Calif.) was used for image analysis. Each feature was determined from an array's associated pattern file and a detection algorithm. Intensity values for each feature were determined after subtracting background derived from an average of negative control features. Features with unusual pixel intensity statistics (e.g., high non-uniformity, saturation in either channel, and the like) were excluded from downstream analyses. Data was loaded into the Rosetta RESOLVER database (Rosetta Inpharmatics Inc., Kirkland, Wash.) for storage and analysis. Data was evaluated after combining results from fluor reversal replicate hybridizations. The annotation of yeast ORFs was obtained from Proteome BIOKNOWLEDGE Library (Incyte Genomics, Palo Alto, Calif.). In AF1, two different technologies were utilized: gene expression analysis (for examination of mRNA expression) and metabolite analysis. […] As noted previously, existing metabolic databases may be helpful in practicing the methods and systems of the present invention, but many databases include limitations that make their use in data analysis and pathway mapping less than straightforward. […] This caveat to KEGG makes it difficult to pinpoint the correct pathway when attempting to link a gene to a specific pathway.

[2] = tested on: Saccharomyces cerevisiae wild type strain BY4743; test: AF1 combined gene expression and metabolite mapping to reactions and pathways (KEGG); format: cell-based
Description: The pathway score indicates how meaningful the mapping is, or how likely it is to be correctly indicative of the pathway involved in the perturbation under examination. The method provides a pathway score based on perturbation levels of genes and/or compounds and the information content of each gene and/or compound in the pathway, i.e., a pathway score indicates the extent to which other pathways are mapped to a gene/compound. For example, imagine that two genes are perturbed in a particular experiment. One gene maps to only one pathway, giving a high degree of probability that the perturbed pathway is the one identified in the mapping. The second gene maps to three pathways. In the later example, there is only one-third the probability that the pathway identified in the mapping is the one perturbed. The present invention provides a method for calculating the pathway scores, so that more weight is given to a score of a gene or compound that maps to only one pathway than to a score of a gene or compound that maps to multiple pathways. […] Where n=the total number of genes in the pathway; ipath—count=the number of pathways containing a gene; and j=the number of genes in the pathway that are perturbed. Another factor to be considered when weighting a pathway score is the degree of perturbation. Degree of perturbation can be calculated, for example, based on a number of standard deviations from a norm, and included in an equation such as the one shown above, so that not only the number of pathways is taken into account, but also accounts for the amount of gene transcript or compound present as compared to a control. The data were then combined to determine the number of reactions showing an enzyme and at least one compound perturbed, and to determine the number of pathways having at least one enzyme and one perturbed compound perturbed. The results of the analysis are represented in Tables 16 and 17, and were difficult to interpret, illustrating that the ability to draw conclusions from compound mapping to pathways is limited when absent additional data.

| Structure (SMILES) | # Transcripts perturbed ([1]; P < 0.05) | # Transcripts perturbed ([1]; P < 0.1) | # Pathways Affected by at Least One Gene [1] | # Reactions Having an Enzyme and at Least One Compound Perturbed [2] | Number Of Pathways Having at Least One Enzyme and One Compound Perturbed (# Reactions) [2] |
| --- | --- | --- | --- | --- | --- |
| C[C@@H]1[C@H](O)[C@@H](C)/C=C/C=C/C=C/C=C/C=C/C=C/C=C/[C@H](O[C@@H]2O[C@H](C)[C@@H](O)[C@H](N)[C@@H]2O)C[C@@H]2O[C@](O)(C[C@@H](O)C[C@@H](O)[C@H](O)CC[C@@H](O)C[C@@H](O)CC(=O)O[C@H]1C)C[C@H](O)[C@H]2C(=O)O [Amphoteracin B] | 4363 | 4652 | 97 | 54 | 37 |
| OC(Cn1cncn1)(Cn1cncn1)c1ccc(F)cc1F [Fluconazole] | 1411 | 1719 | 79 | 2 | 15 |
| CC[C@@H]([C@H](C)O)n1ncn(-c2ccc(N3CCN(c4ccc(OC[C@@H]5CO[C@@](Cn6cncn6)(c6ccc(F)cc6F)C5)cc4)CC3)cc2)c1=O [Posaconazole] | 690 | 925 | 69 | 0 | 3 |

From US20030229451A1, “Methods and systems for analyzing complex biological systems” (priority 2001, published 2003)
